Experimental data reported in patent US10111936B2, “Metal-glycoprotein complexes and photodynamic therapy of immune privileged sites with same” (Theralase Technologies, Inc., priority 2015, dated 2018).
Where two headings read alike, the source gives them in different places.

Legend:
[1] = tested on: HT1376 cells
[2] = tested on: AY27 cancer cells; assay: Transferrin receptor antibody blocking, dark toxicity and PDT effect; type: cell-based; conditions: 635 nm, 90 J cm−2, anti-transferrin receptor antibody
Protocol: The cells were incubated with anti-transferrin receptor antibody. The photosensitizer was pre-mixed in parallel with 0.4 mg/mL human transferrin and incubated for 1 hour at 37° C. In control group (no additional transferrin), equivalent volume of no-transferrin medium was added. The cells were washed of the excess of antibody (the cells incubated in medium without antibody served as comparison groups) and incubated with the pre-mixes for 30 minutes. After that, the medium was replaced with a fresh one (without photosensitizer and transferrin) and the cells were irradiated. On the next day (21 hours post-irradiation), viability of the cells was measured using Presto Blue viability assay, and percent of cell kill was calculated. The PDT effect shown is a result of subtraction of “photosensitizer alone” and “light alone” cell kill from the total PDT cell kill. Dark toxicity is shown on FIG. 20A, PDT effect is shown on FIG. 20B.
(§1) The cells were incubated with anti-transferrin antibody. […] On the next day (21 hours post-irradiation), viability of the cells was measured using Presto Blue viability assay, and percent of cell kill was calculated. […]
as §1

[3] = tested on: U87 cells; assay: Intracellular uptake by ICP-MS, cancer cells; type: cell-based, human; conditions: 200 uM photosensitizer, 0.8 mg/mL transferrin, 4 hours
Protocol: Cell culture (U87 cells) was exposed to 200 uM of the photosensitizer without additional transferrin and in the presence of 0.8 mg/mL transferrin for 4 hours. The incubation mix was washed away and the cells were collected, counted, and lysed. Lysed solution was dissolved in nitric acid and appropriate metals concentration was measured using inductively coupled plasma mass spectrometry. The metals concentration is directly proportional to the concentration of the photosensitizer.

[4] = tested on: AY27 cancer cell line; assay: In vitro dark toxicity, Presto Blue cell kill; type: cell-based; conditions: 0.4 mg/mL human transferrin, 30 minutes
Protocol: (§2) The photosensitizer was pre-mixed with 0.4 mg/mL human transferrin and incubated for 1 hour at 37° C. In control group (no additional transferrin), equivalent volume of no-transferrin medium was added. The cells were subsequently incubated with the pre-mixes for 30 minutes (FIG. 12A) or 90 minutes (FIG. 12B). After that, the medium was replaced with a fresh one (without photosensitizer and transferrin). On the next day (21 hours post-irradiation), viability of the cells was measured using Presto Blue viability assay, and percent of cell kill was calculated.
as §2, with “minutes.” for “minutes (FIG. 12A) or 90 minutes (FIG. 12B).”

[5] = tested on: AY27 cancer cell line; assay: In vitro PDT effect, Presto Blue cell kill; type: cell-based; conditions: 90 J cm−2, 0.4 mg/mL human transferrin, 30 minutes
Protocol: The photosensitizer was pre-mixed with 0.4 mg/mL human transferrin and incubated for 1 hour at 37° C. In control group (no additional transferrin), equivalent volume of no-transferrin medium was added. The cells were subsequently incubated with the pre-mixes for 30 minutes (FIG. 14A) or 90 minutes (FIG. 14B). After that, the medium was replaced with a fresh one (without photosensitizer and transferrin) and the cells were irradiated. On the next day (21 hours post-irradiation), viability of the cells was measured using Presto Blue viability assay, and percent of cell kill was calculated. The PDT effect shown is a result of subtraction of “photosensitizer alone” and “light alone” cell kill from the total PDT cell kill.
as §2, with “minutes.” for “minutes (FIG. 12A) or 90 minutes (FIG. 12B).”, “transferrin) and the cells were irradiated.” for “transferrin).”, “calculated. […]” for “calculated.”

For [Os+2].c1ccc2cc3nc4c5cccnc5c5ncccc5c4nc3cc2c1.c1ccc2nc(-c3ccc4ccccc4n3)ccc2c1.c1ccc2nc(-c3ccc4ccccc4n3)ccc2c1 [TLDOsH2dppn], the “Therapeutic Ratio” value ([1]; 530 nm, 90 J cm−2, no transferrin) was 1548.2, the “Therapeutic Ratio” value ([1]; 530 nm, 90 J cm−2, transferrin) was 4963.8 and the “Therapeutic Ratio” value ([1]; 650 nm, 90 J cm−2, no transferrin (cell not marked prophetic)) was 37.7. The “Therapeutic Ratio” value ([1]; 650 nm, 90 J cm−2, transferrin) was 61.9, the “effect of blocking transferrin receptors on dark toxicity and PDT effect” value [2] was “prevents decrease in dark toxicity and facilitation of PDT effect” and the “uptake into cancer cells, effect of transferrin” value [3] was “transferrin facilitated uptake”. The “dark toxicity, effect of transferrin” value [4] was “decreases dark toxicity”, the “PDT effect, effect of transferrin” value ([5]; 530 nm) was “increases PDT effect” and the “PDT effect, effect of transferrin” value ([5]; 635 nm) was “increases PDT effect”.
